Experiments:
Format in all cases: in vivo
[1] = test system: wheat (Triticum aestivum); test: Test A postemergence, wheat; details: Postemergence; for Wheat plant response rating: 500 g ai/ha, visual injury vs untreated controls after approx. 10 days
In short: (§1)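 Postemergence ratings come from foliar sprays onto one- to two-leaf plants of 2 to 10 cm grown in loam/sand; preemergence ratings come from a directed spray onto the soil of newly seeded pots. Formulation was a surfactant-containing non-phytotoxic solvent blend.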

[2] = test system: barnyardgrass (Echinochloa crus-galli); test: Test A postemergence, barnyardgrass; details: Postemergence, 0 to 100 scale (0 no effect, 100 complete control); for Barnyardgrass plant response rating: 500 g ai/ha, visual injury vs untreated controls after approx. 10 days
In short: as §1

kochia (Bassia scoparia) [3] = test: Test A preemergence, kochia; details: Preemergence; for Kochia plant response rating: 125 g ai/ha, visual injury on 0 to 100 scale (0 no effect, 100 complete control), approximately 10 days; for Plant response rating, Kochia: 0 to 100 scale (0 no effect, 100 complete control)
In short: (§2)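 Greenhouse pot test in a loam–sand blend; compounds delivered in a non-phytotoxic solvent carrying a surfactant, applied either as a directed spray to soil at seeding or over seedlings 2 to 10 cm high with one to two leaves.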

[4] = test system: Ryegrass, Italian (Italian ryegrass, Lolium multiflorum); test: Test A preemergence, Ryegrass, Italian; details: Preemergence; for Ryegrass, Italian plant response rating: 125 g ai/ha, visual injury on 0 to 100 scale (0 no effect, 100 complete control), approximately 10 days; for Plant response rating, Ryegrass, Italian: 0 to 100 scale (0 no effect, 100 complete control)
In short: as §2

[5] = test system: galium (catchweed bedstraw, Galium aparine); test: Test A postemergence, galium; details: Postemergence; for Galium plant response rating: 500 g ai/ha, visual injury vs untreated controls after approx. 10 days
In short: as §1

[6] = test system: pigweed (Amaranthus retroflexus); test: Test A preemergence, pigweed; details: for Pigweed plant response rating: 125 g ai/ha, visual injury on 0 to 100 scale (0 no effect, 100 complete control), approximately 10 days; for Plant response rating, Pigweed: 0 to 100 scale (0 no effect, 100 complete control)
In short: as §1

[7] = test system: ragweed (common ragweed, Ambrosia artemisiifolia); test: Test A postemergence, ragweed; details: Postemergence; for Ragweed plant response rating: 500 g ai/ha, visual injury vs untreated controls after approx. 10 days
In short: as §2

[8] = test system: Foxtail, Giant (giant foxtail, Setaria faberi); test: Test A preemergence, Foxtail, Giant; details: Preemergence; for Foxtail, Giant plant response rating: 125 g ai/ha, visual injury on 0 to 100 scale (0 no effect, 100 complete control), approximately 10 days; for Plant response rating, Foxtail, Giant: 0 to 100 scale (0 no effect, 100 complete control)
In short: as §2

[9] = test system: Ryegrass, Italian (Italian ryegrass, Lolium multiflorum); test: Test A postemergence, Ryegrass, Italian; details: Postemergence; for Ryegrass, Italian plant response rating: 500 g ai/ha, visual injury vs untreated controls after approx. 10 days
In short: as §2

[10] = test system: ragweed (common ragweed, Ambrosia artemisiifolia); test: Test A preemergence, ragweed; details: Preemergence; for Ragweed plant response rating: 125 g ai/ha, visual injury on 0 to 100 scale (0 no effect, 100 complete control), approximately 10 days; for Plant response rating, Ragweed: 0 to 100 scale (0 no effect, 100 complete control)
In short: as §2

corn (Zea mays) = test: Test A postemergence, corn; details: Postemergence; for Corn plant response rating: 500 g ai/ha, visual injury vs untreated controls after approx. 10 days
In short: as §2

kochia (Bassia scoparia) [11] = test: Test A postemergence, kochia; details: Postemergence; for Kochia plant response rating: 500 g ai/ha, visual injury vs untreated controls after approx. 10 days
In short: as §2

[12] = test system: blackgrass (Alopecurus myosuroides); test: Test A postemergence, blackgrass; details: Postemergence, 0 to 100 scale (0 no effect, 100 complete control); for Blackgrass plant response rating: 500 g ai/ha, visual injury vs untreated controls after approx. 10 days
In short: as §2

[13] = test system: barnyardgrass (Echinochloa crus-galli); test: Test A preemergence, barnyardgrass; details: Preemergence; for Barnyardgrass plant response rating: 125 g ai/ha, visual injury on 0 to 100 scale (0 no effect, 100 complete control), approximately 10 days; for Plant response rating, Barnyardgrass: 0 to 100 scale (0 no effect, 100 complete control)
In short: as §2

[14] = test system: pigweed (Amaranthus retroflexus); test: Test A postemergence, pigweed; details: Postemergence; for Pigweed plant response rating: 500 g ai/ha, visual injury vs untreated controls after approx. 10 days
In short: as §2

[15] = test system: Foxtail, Giant (giant foxtail, Setaria faberi); test: Test A postemergence, Foxtail, Giant; details: Postemergence; for Foxtail, Giant plant response rating: 500 g ai/ha, visual injury vs untreated controls after approx. 10 days
In short: as §2

[16] = 125 g ai/ha, 0 to 100 scale (0 no effect, 100 complete control)
[17] = 0 to 100 scale (0 no effect, 100 complete control)
[18] = 125 g ai/ha, visual injury approx. 10 days
[19] = 125 g ai/ha, visual injury approx. 10 days, 0 to 100 scale (0 no effect, 100 complete control)
[20] = 31 g ai/ha, visual injury on 0 to 100 scale (0 no effect, 100 complete control), approx. 10 days
[21] = 31 g ai/ha, visual injury, approx. 10 days

SMILES	Plant response rating, Wheat [1, 16]	Wheat plant response rating [1, 17]	Plant response rating, Barnyardgrass [2, 18]	Barnyardgrass plant response rating [2]	Kochia plant response rating (kochia (Bassia scoparia) [3])	Plant response rating, Kochia (kochia (Bassia scoparia) [3]; 500 g ai/ha)	Ryegrass, Italian plant response rating [4]	Plant response rating, Ryegrass, Italian ([4]; 500 g ai/ha)	Plant response rating, Galium [5, 19]	Pigweed plant response rating [6]	Plant response rating, Ragweed [7, 16]	Foxtail, Giant plant response rating [8]	Plant response rating, Ryegrass, Italian [9, 16]	Ragweed plant response rating [10]	Plant response rating, Corn (corn (Zea mays); [19])	Plant response rating, Kochia (kochia (Bassia scoparia) [11]; [19])	Plant response rating, Blackgrass [12, 18]	Barnyardgrass plant response rating [13]	Plant response rating, Pigweed [14, 16]	Plant response rating, Foxtail, Giant [15, 19]	also measured
Cc1cc(C(F)(F)F)c(C(=O)N(C)C)cc1NS(=O)(=O)C(F)(F)F [Compound 133]	0	50	0	10	0	0	20	90	80	30	90	10	30	20	10	20	0	30	60	0	Galium plant response rating [5, 17]: 90; Plant response rating, Pigweed ([6]; 500 g ai/ha): 90; Ragweed plant response rating [7, 17]: 80; Plant response rating, Foxtail, Giant ([8]; 500 g ai/ha): 90; Ryegrass, Italian plant response rating [9, 17]: 40; Plant response rating, Ragweed ([10]; 500 g ai/ha): 90; Corn plant response rating (corn (Zea mays); [17]): 10; Kochia plant response rating (kochia (Bassia scoparia) [11]; [17]): 20; Blackgrass plant response rating [12]: 0; Plant response rating, Barnyardgrass ([13]; 500 g ai/ha): 90; Pigweed plant response rating [14, 17]: 90; Foxtail, Giant plant response rating [15, 17]: 10
Cc1cc(C#N)c(C(=O)N(C)C)cc1NS(=O)(=O)C(F)(F)F [Compound 134]	0	0	0	10	0	0	20	90	50	80	70	40	0	10	0	40	0	0	50	0	Galium plant response rating [5, 17]: 80; Plant response rating, Pigweed ([6]; 500 g ai/ha): 90; Ragweed plant response rating [7, 17]: 40; Plant response rating, Foxtail, Giant ([8]; 500 g ai/ha): 100; Ryegrass, Italian plant response rating [9, 17]: 0; Plant response rating, Ragweed ([10]; 500 g ai/ha): 30; Corn plant response rating (corn (Zea mays); [17]): 0; Kochia plant response rating (kochia (Bassia scoparia) [11]; [17]): 70; Blackgrass plant response rating [12]: 0; Plant response rating, Barnyardgrass ([13]; 500 g ai/ha): 40; Pigweed plant response rating [14, 17]: 90; Foxtail, Giant plant response rating [15, 17]: 10
Cc1cc(C)c(C2=NOC3(CCC4(CC3)OCCO4)C2)cc1NS(=O)(=O)C(F)(F)F [Compound 135]	0	70	80	90	80	100	100	100	90	60	20	100	0	10	0	50	20	100	80	90	Galium plant response rating [5, 17]: 90; Plant response rating, Pigweed ([6]; 500 g ai/ha): 100; Ragweed plant response rating [7, 17]: 80; Plant response rating, Foxtail, Giant ([8]; 500 g ai/ha): 100; Ryegrass, Italian plant response rating [9, 17]: 80; Plant response rating, Ragweed ([10]; 500 g ai/ha): 80; Corn plant response rating (corn (Zea mays); [17]): 80; Kochia plant response rating (kochia (Bassia scoparia) [11]; [17]): 70; Blackgrass plant response rating [12]: 60; Plant response rating, Barnyardgrass ([13]; 500 g ai/ha): 100; Pigweed plant response rating [14, 17]: 70; Foxtail, Giant plant response rating [15, 17]: 90
Cc1cc(C)c(N(S(=O)(=O)C(F)(F)F)S(=O)(=O)C(F)(F)F)cc1C1=NOC2(CCC3(CC2)OCCO3)C1 [Compound 136]	70	60	20	80	80	90	90	100	70	20	60	100	80	50	0	30	10	90	40	0	Galium plant response rating [5, 17]: 90; Plant response rating, Pigweed ([6]; 500 g ai/ha): 70; Ragweed plant response rating [7, 17]: 50; Plant response rating, Foxtail, Giant ([8]; 500 g ai/ha): 100; Ryegrass, Italian plant response rating [9, 17]: 0; Plant response rating, Ragweed ([10]; 500 g ai/ha): 80; Corn plant response rating (corn (Zea mays); [17]): 30; Kochia plant response rating (kochia (Bassia scoparia) [11]; [17]): 40; Blackgrass plant response rating [12]: 20; Plant response rating, Barnyardgrass ([13]; 500 g ai/ha): 100; Pigweed plant response rating [14, 17]: 90; Foxtail, Giant plant response rating [15, 17]: 50
COC1CCCN(C(=O)c2cc(NS(=O)(=O)C(F)(F)F)c(C)cc2C)CC1 (centres unmarked) [Compound 137]	0		30		30		100		80	100	10	100	0	60	30	20	0	100	30	0	Plant response rating, Wheat [1, 20]: 0; Plant response rating, Barnyardgrass ([2]; 31 g ai/ha): 10; Plant response rating, Kochia (kochia (Bassia scoparia) [3]; [21]): 30; Plant response rating, Ryegrass, Italian [4, 21]: 60; Plant response rating, Galium [5, 20]: 30; Plant response rating, Pigweed [6, 21]: 80; Plant response rating, Ragweed [7, 20]: 0; Plant response rating, Foxtail, Giant [8, 21]: 50; Plant response rating, Ryegrass, Italian [9, 20]: 0; Plant response rating, Ragweed [10, 21]: 20; Plant response rating, Corn (corn (Zea mays); [20]): 30; Plant response rating, Kochia (kochia (Bassia scoparia) [11]; [20]): 0; Plant response rating, Blackgrass ([12]; 31 g ai/ha): 0; Plant response rating, Barnyardgrass [13, 21]: 20; Plant response rating, Pigweed [14, 20]: 50; Plant response rating, Foxtail, Giant [15, 20]: 0
Cc1cc(C)c(N(S(=O)(=O)C(F)(F)F)S(=O)(=O)C(F)(F)F)cc1C1=NOC2(CCC(C)(C)CC2)C1 [Compound 139]	0	0	0	0	0	60	50	70	50	20	0	0	0	0	0	0	0	0	40	0	Galium plant response rating [5, 17]: 80; Plant response rating, Pigweed ([6]; 500 g ai/ha): 70; Ragweed plant response rating [7, 17]: 0; Plant response rating, Foxtail, Giant ([8]; 500 g ai/ha): 20; Ryegrass, Italian plant response rating [9, 17]: 0; Plant response rating, Ragweed ([10]; 500 g ai/ha): 30; Corn plant response rating (corn (Zea mays); [17]): 0; Kochia plant response rating (kochia (Bassia scoparia) [11]; [17]): 50; Blackgrass plant response rating [12]: 0; Plant response rating, Barnyardgrass ([13]; 500 g ai/ha): 30; Pigweed plant response rating [14, 17]: 80; Foxtail, Giant plant response rating [15, 17]: 0
CCCCC(=O)OCN(c1cc(C2=NOC3(CCCC3)C2)c(C)cc1C)S(=O)(=O)C(F)(F)F [Compound 143]	50		50		20		90		40	100	10	100	20	0	20	20	0	90	40	30	Plant response rating, Wheat [1, 20]: 20; Plant response rating, Barnyardgrass ([2]; 31 g ai/ha): 0; Plant response rating, Kochia (kochia (Bassia scoparia) [3]; [21]): 0; Plant response rating, Ryegrass, Italian [4, 21]: 90; Plant response rating, Galium [5, 20]: 50; Plant response rating, Pigweed [6, 21]: 60; Plant response rating, Ragweed [7, 20]: 0; Plant response rating, Foxtail, Giant [8, 21]: 50; Plant response rating, Ryegrass, Italian [9, 20]: 0; Plant response rating, Ragweed [10, 21]: 0; Plant response rating, Corn (corn (Zea mays); [20]): 0; Plant response rating, Kochia (kochia (Bassia scoparia) [11]; [20]): 10; Plant response rating, Blackgrass ([12]; 31 g ai/ha): 60; Plant response rating, Barnyardgrass [13, 21]: 80; Plant response rating, Pigweed [14, 20]: 20; Plant response rating, Foxtail, Giant [15, 20]: 0

— patent US20230278972A1, “SUBSTITUTED HALOALKYL SULFONANILIDE HERBICIDES” (FMC Corporation, priority 2020, published 2023)
